pIC50: −log10 of the molar value. Read-outs that look alike come from different tables or passages of the source.
Legend:
HDAC2 = HDAC2 (Homo sapiens, UniProt Q92769); assay: In vitro HDAC inhibition assay, HDAC2; format: biochemical; settings: NI = No inhibition at a concentration of 50 pM (footnote b); read-out: HDAC isoform IC50, HDAC2
HDAC3/NcoR2 complex = HDAC3/NcoR2 complex (Homo sapiens, UniProt O15379); assay: In vitro HDAC inhibition assay, HDAC3; format: biochemical; settings: NI = No inhibition at a concentration of 50 pM (footnote b); read-out: HDAC isoform IC50, HDAC3
HDAC3/NcoR2 complex, sequence (O15379 whole entry, canonical isoform): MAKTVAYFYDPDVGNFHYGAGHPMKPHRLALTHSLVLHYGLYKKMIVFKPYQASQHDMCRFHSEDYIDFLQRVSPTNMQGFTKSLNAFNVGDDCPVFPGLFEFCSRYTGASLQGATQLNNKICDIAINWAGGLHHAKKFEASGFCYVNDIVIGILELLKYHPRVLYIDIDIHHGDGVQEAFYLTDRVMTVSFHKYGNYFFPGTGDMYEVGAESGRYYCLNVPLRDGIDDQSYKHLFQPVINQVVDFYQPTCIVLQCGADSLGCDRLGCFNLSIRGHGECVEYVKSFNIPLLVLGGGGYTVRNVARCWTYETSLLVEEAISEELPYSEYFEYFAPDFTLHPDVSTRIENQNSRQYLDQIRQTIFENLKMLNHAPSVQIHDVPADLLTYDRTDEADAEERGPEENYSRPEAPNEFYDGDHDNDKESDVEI
HDAC3/NcoR2 complex, sequence (Q9Y618 395-489 partner limits assumed): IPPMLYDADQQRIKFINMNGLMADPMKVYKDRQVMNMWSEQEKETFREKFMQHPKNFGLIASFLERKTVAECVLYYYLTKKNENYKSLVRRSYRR

Human HDAC6 = biological target: T1, Human HDAC6 (Homo sapiens, UniProt Q9UBN7); assay: In vitro HDAC inhibition assay, HDAC6; format: biochemical; settings: read-out: HDAC isoform IC50, HDAC6
T1 construct: Full length with N-terminal GST tag, MW=159 kDa; GST (N); host or cells: baculovirus expression system, Sf9 cells
T1 sequence (Q9UBN7 1-1215): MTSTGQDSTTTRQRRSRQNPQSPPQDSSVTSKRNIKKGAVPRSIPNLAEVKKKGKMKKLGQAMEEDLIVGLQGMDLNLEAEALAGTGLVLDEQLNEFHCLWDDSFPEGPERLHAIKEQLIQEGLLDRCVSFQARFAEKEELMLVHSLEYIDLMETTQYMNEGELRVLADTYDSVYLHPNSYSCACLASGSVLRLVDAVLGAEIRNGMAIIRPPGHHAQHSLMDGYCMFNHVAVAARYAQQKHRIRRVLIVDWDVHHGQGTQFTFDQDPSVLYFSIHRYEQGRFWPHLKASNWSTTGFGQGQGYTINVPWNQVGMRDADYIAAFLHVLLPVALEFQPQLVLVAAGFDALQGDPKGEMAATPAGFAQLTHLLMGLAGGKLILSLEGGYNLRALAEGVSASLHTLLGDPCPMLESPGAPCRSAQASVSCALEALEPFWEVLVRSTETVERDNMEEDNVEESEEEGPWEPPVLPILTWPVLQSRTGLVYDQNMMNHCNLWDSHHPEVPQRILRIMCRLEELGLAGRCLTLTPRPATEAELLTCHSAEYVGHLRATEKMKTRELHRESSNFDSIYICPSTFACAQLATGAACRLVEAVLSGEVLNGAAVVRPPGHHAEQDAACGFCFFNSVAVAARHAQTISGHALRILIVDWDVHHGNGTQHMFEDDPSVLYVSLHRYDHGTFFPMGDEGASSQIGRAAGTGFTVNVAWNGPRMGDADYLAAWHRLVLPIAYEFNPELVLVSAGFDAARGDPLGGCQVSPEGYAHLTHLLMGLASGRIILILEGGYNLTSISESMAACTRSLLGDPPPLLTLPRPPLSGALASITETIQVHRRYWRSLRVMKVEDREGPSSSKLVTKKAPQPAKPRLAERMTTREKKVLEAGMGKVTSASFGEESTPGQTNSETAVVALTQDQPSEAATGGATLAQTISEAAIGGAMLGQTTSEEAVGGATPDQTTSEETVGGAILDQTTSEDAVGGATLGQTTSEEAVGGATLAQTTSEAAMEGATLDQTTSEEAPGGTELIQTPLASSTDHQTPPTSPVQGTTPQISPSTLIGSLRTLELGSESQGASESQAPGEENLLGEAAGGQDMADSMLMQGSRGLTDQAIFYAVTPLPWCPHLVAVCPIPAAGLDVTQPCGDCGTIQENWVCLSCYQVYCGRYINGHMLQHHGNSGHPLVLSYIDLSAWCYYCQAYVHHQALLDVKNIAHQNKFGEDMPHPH

HDAC10 = biological target: T2, HDAC10 (Homo sapiens, UniProt Q969S8); assay: In vitro HDAC inhibition assay, HDAC10; format: biochemical; settings: NI = No inhibition at a concentration of 50 pM (footnote b); read-out: HDAC isoform IC50, HDAC10
T2 sequence (Q969S8 1-669): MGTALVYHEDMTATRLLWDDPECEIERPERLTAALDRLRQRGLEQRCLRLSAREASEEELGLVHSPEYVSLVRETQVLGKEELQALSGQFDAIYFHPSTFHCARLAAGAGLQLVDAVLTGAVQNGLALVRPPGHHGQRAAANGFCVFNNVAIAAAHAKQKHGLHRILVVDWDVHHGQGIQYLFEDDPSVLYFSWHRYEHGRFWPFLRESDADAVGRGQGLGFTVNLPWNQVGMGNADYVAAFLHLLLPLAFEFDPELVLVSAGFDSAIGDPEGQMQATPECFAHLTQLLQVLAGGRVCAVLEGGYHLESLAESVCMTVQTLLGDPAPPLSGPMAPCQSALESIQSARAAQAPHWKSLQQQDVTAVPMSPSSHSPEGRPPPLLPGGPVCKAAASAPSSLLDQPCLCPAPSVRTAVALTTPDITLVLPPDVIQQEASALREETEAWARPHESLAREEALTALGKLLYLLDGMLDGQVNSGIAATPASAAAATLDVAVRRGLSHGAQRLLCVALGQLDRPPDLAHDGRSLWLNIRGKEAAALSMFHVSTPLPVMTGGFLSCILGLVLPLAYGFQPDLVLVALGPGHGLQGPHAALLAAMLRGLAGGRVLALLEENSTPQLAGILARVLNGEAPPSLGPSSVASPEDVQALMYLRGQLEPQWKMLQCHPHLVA

Human HDAC1 = Human HDAC1 (Homo sapiens, UniProt Q13547); assay: In vitro HDAC inhibition assay, HDAC1
Human HDAC1, sequence (Q13547 whole entry): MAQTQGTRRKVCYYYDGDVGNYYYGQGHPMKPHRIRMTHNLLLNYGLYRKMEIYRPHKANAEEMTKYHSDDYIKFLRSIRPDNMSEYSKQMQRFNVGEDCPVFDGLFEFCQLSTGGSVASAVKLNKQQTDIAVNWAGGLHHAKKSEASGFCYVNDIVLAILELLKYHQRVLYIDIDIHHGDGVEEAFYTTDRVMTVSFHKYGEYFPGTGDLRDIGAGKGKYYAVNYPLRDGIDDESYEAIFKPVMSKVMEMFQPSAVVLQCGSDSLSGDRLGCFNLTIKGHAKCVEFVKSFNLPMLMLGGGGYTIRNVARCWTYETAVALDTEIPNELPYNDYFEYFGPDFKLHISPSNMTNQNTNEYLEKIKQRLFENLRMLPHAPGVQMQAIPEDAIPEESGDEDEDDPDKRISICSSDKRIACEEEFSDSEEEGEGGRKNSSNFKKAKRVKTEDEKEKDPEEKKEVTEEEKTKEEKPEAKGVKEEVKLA

BxPC3 = assay: In vitro growth inhibition (GI), MTS cell proliferation assay (Table 5), BxPC3; format: cell-based; settings: Homo sapiens, BXPC-3, 72 hours post-treatment
L3.6pl = assay: In vitro growth inhibition (GI), MTS cell proliferation assay (Table 5), L3.6pl; format: cell-based; settings: Homo sapiens, 72 hours post-treatment
PANC1 cells = assay: Scratch-wound cell migration assay; format: cell-based; design: key to Inhibition of cell migration, 24 h / Inhibition of cell migration, 48 h: Level of inhibition (high to low): +++, ++ or +; Level of inhibition (high to low): +++, ++ or +; Level of inhibition (high to low): +++, ++ or +; no inhibition: −; settings: for Inhibition of cell migration, 24 h: PANC1, 24 h post wounding; for Inhibition of cell migration, 48 h: PANC1, 48 h post wounding
Description: FIG. 2 contains photographs of PANC1 cells treated with present compounds 9 and 6 taken 24 and 48 hours (post wounding) after a scratch was made through a confluent layer of cells; and
PANC1 Cell migration and effect on T and NK Cells. The effect of HDAC6 inhibition on cell migration and cellular cytotoxicity was evaluated. […] Thus, these HDAC6-selective inhibitors could function well to block metastasis. However, in contrast to the effect observed on cell migration, none of the compounds tested affected CD8+ T cell or natural killer (NK) cell-mediated cytotoxicity, despite the ability of the compounds to substantially increase the levels of acetyl-tubulin in these cell lines.

acetylated alpha-tubulin = assay: Accumulation of acetylated alpha-tubulin in pancreatic cancer cells; format: cell-based; settings: FIG. 1A
Source text: Cell cycle and inhibition of alpha-tubulin deacetylation.

[1] = read-out: HDAC isoform IC50, HDAC1, NI = No inhibition at a concentration of 50 pM (footnote b)

HDAC2, sequence (Q92769 whole entry, canonical isoform): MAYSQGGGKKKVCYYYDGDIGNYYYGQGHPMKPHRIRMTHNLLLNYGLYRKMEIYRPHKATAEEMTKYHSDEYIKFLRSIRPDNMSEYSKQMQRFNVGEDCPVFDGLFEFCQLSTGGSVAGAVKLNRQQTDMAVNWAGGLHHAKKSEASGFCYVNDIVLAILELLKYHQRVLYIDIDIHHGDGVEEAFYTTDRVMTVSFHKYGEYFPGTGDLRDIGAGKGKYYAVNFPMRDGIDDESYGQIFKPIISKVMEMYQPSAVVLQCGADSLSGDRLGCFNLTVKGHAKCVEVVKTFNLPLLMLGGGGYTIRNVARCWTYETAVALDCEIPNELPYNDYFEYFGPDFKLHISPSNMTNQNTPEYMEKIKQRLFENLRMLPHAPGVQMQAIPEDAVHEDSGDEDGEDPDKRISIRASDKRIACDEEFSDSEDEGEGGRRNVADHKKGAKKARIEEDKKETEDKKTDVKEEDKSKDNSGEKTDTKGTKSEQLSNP

SMILES	pIC50 (HDAC2)	pIC50 (HDAC3/NcoR2 complex)	pIC50 (Human HDAC6)	pIC50 (HDAC10)	pIC50 (Human HDAC1; [1])	GI50 (BxPC3)	GI50 (L3.6pl)	Inhibition of cell migration, 24 h (PANC1 cells)	Inhibition of cell migration, 48 h (PANC1 cells)	pIC50 (Human HDAC1)	Effect on PANC1 cell migration (PANC1 cells; compared to diluent-treated control cells)	Accumulation of acetylated alpha-tubulin (acetylated alpha-tubulin)
CC(C)(C)OC(=O)Nc1ccc(-c2csc(NC(=O)CCCc3cc(C(=O)NO)no3)n2)cc1 [Compound 3, (4-{2-[4-(3-Hydroxycarbamoyl-isoxazol-5-yl)-butyrylamino]-thiazol-4-yl}-phenyl)-carbamic acid tert-butyl ester]	5.94	6.35	7.39	7.28	6.40							
CCOC(=O)Nc1cccc(-c2csc(NC(=O)CCc3cc(C(=O)NO)no3)n2)c1 [Compound 5, (3-{2-[3-(3-Hydroxycarbamoyl-isoxazol-5-yl)-propionylamino]-thiazol-4-yl}-phenyl)-carbamic acid ethyl ester]	5.96	6.97	8.48	6.57	6.58	7000 nM	2100 nM					
CC(C)(C)OC(=O)Nc1cccc(-c2cc(C(=O)NCCc3cc(C(=O)NO)no3)no2)c1 [Compound 7, (3-{3-[2-(3-Hydroxycarbamoyl-isoxazol-5-yl)-ethylcarbamoyl]-isoxazol-5-yl}-phenyl)-carbamic acid tert-butyl ester]		4.01	8.11			> 50000 nM	> 50000 nM	+	+	4.27		
CCOC(=O)Nc1ccc(-c2cc(C(=O)NCCc3cc(C(=O)NO)no3)no2)cc1 [Compound 8, (4-{3-[2-(3-Hydroxycarbamoyl-isoxazol-5-yl)-ethylcarbamoyl]-isoxazol-5-yl}-phenyl)-carbamic acid ethyl ester]	4.38	5.28	7.00	4.90	5.41	> 50000 nM	47000 nM					
Nc1cccc(-c2cc(C(=O)NCCc3cc(C(=O)NO)no3)no2)c1 [Compound 9, 5-(2-{[5-(3-Amino-phenyl)-isoxazole-3-carbonyl]-amino}-ethyl)-isoxazole-3-carboxylic acid hydroxyamide]	5.63	5.75	7.77	5.28	5.18	12000 nM	3300 nM	+	−		partial effect	accumulation of acetylated alpha-tubulin
CC(C)(C)C(=O)Nc1cccc(-c2cc(C(=O)NCCc3cc(C(=O)NO)no3)no2)c1 [Compound 10, 5-[2-({5-[3-(2,2-Dimethyl-propionylamino)-phenyl]-isoxazole-3-carbonyl}-amino)-ethyl]-isoxazole-3-carboxylic acid hydroxyamide]			7.67	4.40				−	−	4.12		accumulation of acetylated alpha-tubulin
O=C(NO)c1cc(CCNC(=O)c2cc(-c3cccc(NC(=O)C4CCCCC4)c3)on2)on1 [Compound 11]			8.17			> 50000 nM	> 50000 nM	+	−			accumulation of acetylated alpha-tubulin
O=C(Nc1cccc(-c2cc(C(=O)NCCc3cc(C(=O)NO)no3)no2)c1)c1ccccc1 [Compound 12]	4.98	5.15	8.36	5.33	5.53	> 50000 nM	> 50000 nM	−	−			accumulation of acetylated alpha-tubulin
O=C(NO)c1ccc(CNC(=O)c2cc(-c3ccc(NC(=O)C4CCCCC4)cc3)on2)cc1 [Compound 16, 5-[4-(Cyclohexanecarbonyl-amino)-phenyl]-isoxazole-3-carboxylic acid 4-hydroxycarbamoyl-benzylamide]	5.60	6.67	8.27	6.69	6.46							
O=C(NO)c1ccc(CNC(=O)c2cc(-c3cccc(NC(=O)C4CCCCC4)c3)on2)cc1 [Compound 17, 5-[3-(Cyclohexanecarbonyl-amino)-phenyl]-isoxazole-3-carboxylic acid 4-hydroxycarbamoyl-benzylamide]	5.37	6.17	8.59	6.72	6.67							
O=C(NC(Cc1cc(C(=O)NO)no1)Cc1c[nH]c2ccccc12)c1ccc(Cl)cc1 (centres unmarked) [Compound 19, 5-[2-(4-Chloro-benzoylamino)-3-(1H-indol-3-yl)-propyl]-isoxazole-3-carboxylic acid hydroxyamide]		4.42	6.37							4.33		
O=C(NO)c1cc(CC(Cc2c[nH]c3ccccc23)NC(=O)C(F)(F)F)on1 (centres unmarked) [Compound 20, 5-[3-(1H-Indol-3-yl)-2-(2,2,2-trifluoro-acetylamino)-propyl]-isoxazole-3-carboxylic acid hydroxyamide]		4.38	5.52									
COc1ccc(C(=O)NC(Cc2cc(C(=O)NO)no2)Cc2c[nH]c3ccccc23)cc1OC (centres unmarked) [Compound 21, 5-[2-(3,4-Dimethoxy-benzoylamino)-3-(1H-indol-3-yl)-propyl]-isoxazole-3-carboxylic acid hydroxyamide]		4.27	6.14							4.30		
